{"source": "patent US20050272692A1", "about": "“Sucrose ester compounds useful as fungicides” (priority 2004, published 2005)", "key": {"Stachybotrys chartarum [1]": {"test_system": "Stachybotrys chartarum"}, "Stachybotrys": {"test_system": "Stachybotrys", "conditions": "1000 ppm, lab trial"}, "Aspergillus flavus": {"test_system": "Aspergillus flavus", "conditions": "for growth: all concentrations, malt extract agar, 25° C., 144 hours", "description": "(§1) For each fungus tests were conducted on malt extract agar that was amended with five concentrations of sucrose octanoate. The control medium was standard malt extract agar. The concentrations were prepared based on 100% active ingredient. The parts per million were calculated afterwards to account for a concentration of 40% active ingredient. All fungi in the tests were incubated at 25° C. for 144 hours.\n(§2) For each fungi tests were conducted on malt extract agar that was amended with five concentrations of sorbitol octanoate. The control medium was standard malt extract agar. The concentrations were prepared based on 100% active ingredient. The parts per million were calculated afterwards to account for a concentration of 40% active ingredient. All fungi in the tests were incubated at 25° C. for 144 hours."}, "Aspergillus parasiticus": {"test_system": "Aspergillus parasiticus", "conditions": "for growth: all concentrations, malt extract agar, 25° C., 144 hours", "description": "as §1, §2"}, "Penicillium chrysogenum": {"test_system": "Penicillium chrysogenum", "conditions": "low concentrations, malt extract agar, 25° C., 144 hours", "description": "as §1, §2"}, "Stachybotrys chartarum [2]": {"test_system": "Stachybotrys chartarum", "conditions": "for growth during incubation period: 144 hour incubation, all concentrations; for growth: all concentrations (400 to 2000 ppm), malt extract agar, 25° C."}, "Penicillium": {"test_system": "Penicillium", "conditions": "lab trial"}, "Rhizopus": {"test_system": "Rhizopus", "conditions": "1000 ppm, lab trial"}, "three different fungi": {"test_system": "three different fungi", "conditions": "2000 ppm, lab trial"}, "Rhizopus stolonifer": {"test_system": "Rhizopus stolonifer", "conditions": "for growth during incubation period: 144 hour incubation", "description": "as §1, §2"}, "[3]": {"conditions": "2000 ppm, d.f=2, p<0.05, unpaired one-tailed T-tests"}}, "note": "Where two headings read alike, the source gives them in different places."}
{"substance": "Zinc Mono-Sucrose Succinate [Compound A]", "values": [{"measurement": "reduction of radial growth", "setting": "Stachybotrys chartarum [1]; 1000 ppm", "value": 66.0, "unit": "%"}, {"measurement": "sporulation", "setting": "Stachybotrys chartarum [1]; 1000 ppm medium, high levels on control medium", "value": "reduced to low levels"}, {"measurement": "radial growth diameter", "setting": "Stachybotrys chartarum [1]; 1000 ppm, control medium 19.7 mm", "value": 6.7, "unit": "mm"}, {"measurement": "growth measurement", "setting": "Stachybotrys chartarum [1]; 5000 ppm, very limited growth", "value": 2.7, "unit": "mm"}, {"measurement": "reduction of radial growth", "setting": "Fusarium graminearum; 1000 ppm", "value": 73, "unit": "%"}, {"measurement": "radial growth diameter", "setting": "Fusarium graminearum; 1000 ppm, control 67.6 mm", "value": 18.3, "unit": "mm"}, {"measurement": "inhibition", "setting": "Fusarium graminearum; 5000 ppm", "value": "no additional inhibition over the 1000-ppm assay"}, {"measurement": "reduction of radial growth", "setting": "Pythium ultimum; 1000 ppm", "value": 92.3, "unit": "%"}, {"measurement": "radial growth diameter", "setting": "Pythium ultimum; 1000 ppm, control 85 mm", "value": 6.6, "unit": "mm"}, {"measurement": "growth", "setting": "Pythium ultimum; 5000 ppm", "value": "no significant level of growth"}, {"measurement": "reduction of radial growth", "setting": "Mucor sp; 1000 ppm", "value": 74.4, "unit": "%"}, {"measurement": "radial growth diameter", "setting": "Mucor sp; 1000 ppm, control 66.5 mm", "value": 17, "unit": "mm"}, {"measurement": "growth", "setting": "Mucor sp; 5000 ppm", "value": "no significant level of growth"}, {"measurement": "reduction of radial growth", "setting": "Aspergillus niger; 1000 ppm", "value": 65.6, "unit": "%"}, {"measurement": "sporulation", "setting": "Aspergillus niger; 1000 ppm medium, also high on control medium", "value": "high"}, {"measurement": "radial growth diameter", "setting": "Aspergillus niger; 1000 ppm, control medium 63.0 mm", "value": 21.7, "unit": "mm"}, {"measurement": "growth", "setting": "Aspergillus niger; 5000 ppm", "value": "no significant level of growth"}, {"measurement": "reduction of radial growth", "setting": "Rhizoctonia solani; 1000 ppm", "value": 75.4, "unit": "%"}, {"measurement": "radial growth diameter", "setting": "Rhizoctonia solani; 1000 ppm, control 62.3 mm", "value": 15.3, "unit": "mm"}, {"measurement": "growth measurement", "setting": "Rhizoctonia solani; 5000 ppm, very limited growth", "value": 10, "unit": "mm"}, {"measurement": "reduction of radial growth", "setting": "Alternaria sp; 1000 ppm", "value": 64.9, "unit": "%"}, {"measurement": "radial growth diameter", "setting": "Alternaria sp; 1000 ppm, control 28.5 mm", "value": 10, "unit": "mm"}, {"measurement": "growth", "setting": "Alternaria sp; 5000 ppm", "value": "no significant level of growth"}]}
{"substance": "sorbitol octanoate", "values": [{"measurement": "growth of fungus", "setting": "Stachybotrys", "value": "prevented the growth"}, {"measurement": "growth", "setting": "Aspergillus flavus", "value": "able to grow"}, {"measurement": "growth", "setting": "Aspergillus parasiticus", "value": "able to grow"}, {"measurement": "growth", "setting": "Penicillium chrysogenum", "value": "able to grow, although slowly compared to the control"}, {"measurement": "growth during incubation period", "setting": "Stachybotrys chartarum [2]", "value": "No growth"}, {"measurement": "growth", "setting": "Stachybotrys chartarum [2]", "value": "inhibited"}, {"measurement": "growth of fungus", "setting": "Penicillium; 2000 ppm", "value": "some growth"}, {"measurement": "growth of fungus", "setting": "Rhizopus", "value": "prevented the growth"}]}
{"substance": "sucrose octanoate", "values": [{"measurement": "growth of fungus", "setting": "Stachybotrys", "value": "prevented the growth"}, {"measurement": "growth compared with control plates", "setting": "Aspergillus flavus; [3]", "value": "significantly less"}, {"measurement": "growth", "setting": "Aspergillus flavus", "value": "able to grow"}, {"measurement": "growth compared with control plates", "setting": "Aspergillus parasiticus; [3]", "value": "significantly less"}, {"measurement": "growth", "setting": "Aspergillus parasiticus", "value": "able to grow"}, {"measurement": "growth of fungi", "setting": "three different fungi", "value": "prevented the growth"}, {"measurement": "growth", "setting": "Penicillium chrysogenum", "value": "able to grow, although slowly compared to the control"}, {"measurement": "growth during incubation period", "setting": "Stachybotrys chartarum [2]", "value": "No growth"}, {"measurement": "growth", "setting": "Stachybotrys chartarum [2]", "value": "inhibited"}, {"measurement": "growth of fungus", "setting": "Penicillium; 1000 ppm", "value": "some growth"}, {"measurement": "growth during incubation period", "setting": "Rhizopus stolonifer; all concentrations tested", "value": "no growth"}, {"measurement": "growth during incubation period", "setting": "Rhizopus stolonifer; all concentrations with the exception of 400 ppm level", "value": "no growth"}, {"measurement": "growth", "setting": "Rhizopus stolonifer; all concentrations tested (400 to 2000 ppm), malt extract agar, 25° C.", "value": "inhibited"}, {"measurement": "growth of fungus", "setting": "Rhizopus", "value": "prevented the growth"}]}
